# Experiments:
# [1] = test system: K3T3 sarcoma tumors; details: BALB/c mice bearing K3T3 sarcoma tumors produced by the cell lines; cited from earlier work
# [2] = test system: BALB/c murine K3T3 sarcoma cell lines with herpes simplex virus thymidine kinase gene; details: K3T3 sarcoma cell lines carrying HSV thymidine kinase gene; cited from earlier work
# [3] = test system: hiPSC that do not express the respective suicide gene; test: Cytotoxic effect of the suicide gene substrate on hPSCs that do not express the suicide gene (alkaline phosphatase staining); format: cell-based, human; details: 48 hours
# Text: Cell were fixed and stained for alkaline phosphatase activity after 48 hr. […] Additional experiments will determine the required levels of ganciclovir and 5-FC in hiPSCs that express the suicide gene, to determine the minimum concentration required.
SMILES,effect on tumors in vivo [1],effect on tumor cells in vitro [2],"cytotoxic effect on hiPSCs ([3]; ganciclovir 0.2, 2 or 20 μM)","cytotoxic effect on hiPSCs ([3]; 5-FC 1, 10 and 100 μM)"
"Nc1nc(O)c2ncn(COC(CO)CO)c2n1 [ganciclovir, Ganciclovir]",destruction of the tumors,destruction of the tumor cells,no cytotoxic effect,
"Nc1nc(=O)[nH]cc1F [Vector 5-FC, 5-Flurocytosine]",,,,no cytotoxic effect

# Source: patent publication US20170226483A1, “Methods and Vectors to Produce Vector Free Induced Pluripotent Stem Cells” (Lonza Walkersville, Inc., priority 2016, published 2017)
